From PubChem BioAssay (NCI)
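Briefly, cells in 96-well plates were exposed to five compound concentrations for 48 h, and endpoints were estimated by linear interpolation. GI50 marks 50% less growth. TGI: concentration producing complete growth inhibition.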

Legend:
Experiment in all cases: NCI-60 cell line screen, 48 h
MALME-3M melanoma = system: MALME-3M melanoma
COLO 205 colon = system: COLO 205 colon
SNB-75 CNS = system: SNB-75 CNS
M14 melanoma = system: M14 melanoma
SF-295 CNS = system: SF-295 CNS
786-0 renal = system: 786-0 renal
IGROV1 ovarian = system: IGROV1 ovarian
UO-31 renal = system: UO-31 renal
K-562 leukemia = system: K-562 leukemia
A498 renal = system: A498 renal

N#CC(C#N)=C(N)/C(C#N)=C\c1ccnc2ccccc12
TGI (MALME-3M melanoma): 87 µM | TGI (COLO 205 colon): > 100 µM | TGI (SNB-75 CNS): 70.7 µM | TGI (M14 melanoma): > 100 µM | TGI (SF-295 CNS): 80.4 µM | TGI (786-0 renal): 37.2 µM | TGI (IGROV1 ovarian): 49.5 µM | TGI (UO-31 renal): 40.9 µM | TGI (K-562 leukemia): 26.1 µM

C=CCn1c(C)nc2cc(Nc3nc(Nc4ccc5nc(C)n(CC=C)c5c4)c4ccccc4n3)ccc21
GI50 (SNB-75 CNS): 0.745 µM | TGI (SNB-75 CNS): 2.3 µM | GI50 (SF-295 CNS): 1.19 µM | TGI (SF-295 CNS): 2.56 µM | GI50 (786-0 renal): 0.312 µM | TGI (786-0 renal): 1.08 µM | GI50 (A498 renal): 1.46 µM | TGI (A498 renal): 2.87 µM | GI50 (UO-31 renal): 1.4 µM | TGI (UO-31 renal): 2.74 µM

COP1(=O)CC2C(Cl)(Cl)C2(C)C1 (configuration not stated)
TGI (COLO 205 colon): > 100 µM | TGI (SNB-75 CNS): > 100 µM | TGI (M14 melanoma): > 100 µM | TGI (SF-295 CNS): > 100 µM | TGI (786-0 renal): > 100 µM | TGI (IGROV1 ovarian): > 100 µM | TGI (K-562 leukemia): > 100 µM

CC(=O)NC1=N/C(=C/c2cc([N+](=O)[O-])ccc2O)CN1C
TGI (COLO 205 colon): > 100 µM | TGI (SNB-75 CNS): > 100 µM | TGI (M14 melanoma): > 100 µM | TGI (SF-295 CNS): > 100 µM | TGI (786-0 renal): > 100 µM | TGI (IGROV1 ovarian): > 100 µM | TGI (UO-31 renal): > 100 µM

COc1ccc2c(c1)C(=O)CC(N)C2 (configuration not stated)
TGI (MALME-3M melanoma): > 100 µM | TGI (COLO 205 colon): > 100 µM | TGI (SNB-75 CNS): > 100 µM | TGI (M14 melanoma): > 100 µM | TGI (SF-295 CNS): > 100 µM | TGI (786-0 renal): > 100 µM | TGI (IGROV1 ovarian): > 100 µM | TGI (UO-31 renal): > 100 µM | TGI (K-562 leukemia): > 100 µM

C=CCNC(=S)N1CC(C)C(=O)Nc2ccccc21 (configuration not stated)
TGI (MALME-3M melanoma): > 100 µM | TGI (COLO 205 colon): > 100 µM | TGI (SNB-75 CNS): > 100 µM | TGI (M14 melanoma): > 100 µM | TGI (SF-295 CNS): > 100 µM | TGI (786-0 renal): > 100 µM | TGI (IGROV1 ovarian): > 100 µM | TGI (UO-31 renal): > 100 µM | TGI (K-562 leukemia): > 100 µM

CCN(CC)CCNc1c(OC)cc(C)c2sc3ccccc3c(=O)c12
TGI (MALME-3M melanoma): 6.08 µM | TGI (COLO 205 colon): 5.02 µM | TGI (SNB-75 CNS): 28.7 µM | TGI (M14 melanoma): 12.1 µM | TGI (SF-295 CNS): 14.4 µM | TGI (786-0 renal): 28.4 µM | TGI (IGROV1 ovarian): 20.7 µM | TGI (UO-31 renal): 20.3 µM | TGI (K-562 leukemia): 4.04 µM

O=C1c2cc(Br)ccc2-c2c1c1ccc([N+](=O)[O-])cc1c(=O)n2CCCCl
GI50 (MALME-3M melanoma): 0.25 µM | TGI (MALME-3M melanoma): 7.74 µM | GI50 (COLO 205 colon): 1.39 µM | TGI (COLO 205 colon): > 100 µM | GI50 (M14 melanoma): 0.534 µM | TGI (M14 melanoma): 1.78 µM | GI50 (SF-295 CNS): < 0.0479 µM | TGI (SF-295 CNS): 3.56 µM | GI50 (786-0 renal): 0.659 µM | TGI (786-0 renal): 2.26 µM | GI50 (IGROV1 ovarian): 0.13 µM | TGI (IGROV1 ovarian): 4.58 µM | GI50 (A498 renal): 2.2 µM | TGI (A498 renal): 19.4 µM | GI50 (UO-31 renal): 0.0577 µM | TGI (UO-31 renal): 3.43 µM | GI50 (K-562 leukemia): < 0.0495 µM | TGI (K-562 leukemia): > 43.7 µM

CC(=O)Oc1cc(C)ccc1[C@]1(C)CC[C@H](C)/C1=C\Br
GI50 (MALME-3M melanoma): 2.95 µM | TGI (MALME-3M melanoma): 10.2 µM | GI50 (COLO 205 colon): 2.3 µM | TGI (COLO 205 colon): 5.33 µM | GI50 (M14 melanoma): 6.31 µM | TGI (M14 melanoma): 19.6 µM | GI50 (SF-295 CNS): 3.96 µM | TGI (SF-295 CNS): 13.2 µM | GI50 (786-0 renal): 4.09 µM | TGI (786-0 renal): 14.3 µM | GI50 (IGROV1 ovarian): 7.6 µM | TGI (IGROV1 ovarian): 26.6 µM | GI50 (A498 renal): 5.2 µM | TGI (A498 renal): 17.1 µM | GI50 (UO-31 renal): 8.43 µM | TGI (UO-31 renal): 34 µM | GI50 (K-562 leukemia): 3.71 µM | TGI (K-562 leukemia): 11.4 µM

CN(C)c1ccc(/C=C2\Oc3cc(O)ccc3C2=O)cc1
TGI (COLO 205 colon): > 100 µM | TGI (SNB-75 CNS): > 100 µM | TGI (M14 melanoma): > 100 µM | TGI (SF-295 CNS): > 100 µM | TGI (786-0 renal): > 100 µM | TGI (IGROV1 ovarian): > 100 µM | TGI (UO-31 renal): > 100 µM | TGI (K-562 leukemia): > 100 µM

Cc1nc(N)sc1C(=O)/C=C/c1ccc(/C=C/C(=O)c2sc(NC(=O)CCCCCCCCC(=O)Nc3nc(C)c(C(=O)/C=C/c4ccc(/C=C/C(=O)c5sc(N)nc5C)cc4)s3)nc2C)cc1
TGI (MALME-3M melanoma): > 100 µM | TGI (COLO 205 colon): > 100 µM | TGI (M14 melanoma): > 100 µM | TGI (SF-295 CNS): > 100 µM | TGI (786-0 renal): > 100 µM | TGI (IGROV1 ovarian): > 100 µM | TGI (UO-31 renal): > 100 µM | TGI (K-562 leukemia): > 100 µM

CCOC(=O)CCC(=O)C1c2cccc(O)c2C(=O)c2c(O)cccc21
TGI (MALME-3M melanoma): 3.42 µM | TGI (COLO 205 colon): 3.95 µM | TGI (SNB-75 CNS): 2.33 µM | TGI (M14 melanoma): 1.9 µM | TGI (SF-295 CNS): 1.95 µM | TGI (786-0 renal): 3.26 µM | TGI (IGROV1 ovarian): 4.72 µM | TGI (UO-31 renal): 1.48 µM | TGI (K-562 leukemia): > 100 µM

COc1cc([C@H](C)c2ccc3ccccc3c2)cc(OC)c1OC
GI50 (MALME-3M melanoma): 1.36 µM | TGI (MALME-3M melanoma): > 100 µM | GI50 (COLO 205 colon): 0.306 µM | TGI (COLO 205 colon): 0.865 µM | GI50 (M14 melanoma): 0.197 µM | TGI (M14 melanoma): > 100 µM | GI50 (SF-295 CNS): 0.201 µM | TGI (SF-295 CNS): > 100 µM | GI50 (786-0 renal): 0.536 µM | TGI (786-0 renal): 20 µM | GI50 (IGROV1 ovarian): 0.804 µM | TGI (IGROV1 ovarian): > 100 µM | GI50 (A498 renal): 0.255 µM | TGI (A498 renal): 7.34 µM | GI50 (UO-31 renal): 0.665 µM | TGI (UO-31 renal): > 100 µM | GI50 (K-562 leukemia): 0.0411 µM | TGI (K-562 leukemia): > 100 µM

CCC(=O)c1cn(C)c(=O)c2ccccc12
TGI (MALME-3M melanoma): > 100 µM | TGI (COLO 205 colon): > 100 µM | TGI (SNB-75 CNS): > 100 µM | TGI (M14 melanoma): > 100 µM | TGI (SF-295 CNS): > 100 µM | TGI (786-0 renal): > 100 µM | TGI (IGROV1 ovarian): > 100 µM | TGI (UO-31 renal): > 100 µM | TGI (K-562 leukemia): > 100 µM

N#CCCc1nc2ccc(Br)cc2c(=O)n1CCO
TGI (MALME-3M melanoma): > 100 µM | TGI (COLO 205 colon): > 100 µM | TGI (SNB-75 CNS): > 100 µM | TGI (M14 melanoma): > 100 µM | TGI (SF-295 CNS): > 100 µM | TGI (786-0 renal): > 100 µM | TGI (IGROV1 ovarian): > 100 µM | TGI (UO-31 renal): > 100 µM | TGI (K-562 leukemia): > 100 µM
